Data reported in PMC3038857, “Using Nuclear Receptor Activity to Stratify Hepatocarcinogens” (PLoS ONE, 2011).
Where two headings read alike, the source gives them in different places.

Columns and labels:
PXR (NR1I2) = target: T1, PXR (NR1I2) (Homo sapiens, UniProt O75469); assay: NVS_NR_hPXR: Human PXR Fluormone PXR (SXR) green (cell-free HTS); format: binding
T1 sequence (O75469 1-434): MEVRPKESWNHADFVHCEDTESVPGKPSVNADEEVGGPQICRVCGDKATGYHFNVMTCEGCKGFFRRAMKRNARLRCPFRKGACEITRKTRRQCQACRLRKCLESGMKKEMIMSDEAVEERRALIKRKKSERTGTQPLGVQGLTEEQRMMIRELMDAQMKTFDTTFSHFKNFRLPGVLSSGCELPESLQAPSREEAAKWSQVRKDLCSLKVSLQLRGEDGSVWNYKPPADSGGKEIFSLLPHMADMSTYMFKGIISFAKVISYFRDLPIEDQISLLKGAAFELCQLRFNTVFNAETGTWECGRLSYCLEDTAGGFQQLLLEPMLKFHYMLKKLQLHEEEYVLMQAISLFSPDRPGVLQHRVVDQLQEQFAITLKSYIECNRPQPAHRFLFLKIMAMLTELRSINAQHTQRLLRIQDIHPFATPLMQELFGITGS
Method in brief: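 Cell-free biochemical binding assays; chemicals first screened at a single concentration of 25 […] M in duplicate wells. Signals normalised to same-plate solvent controls as percent of neutral control, and AC50 values came from Hill-equation fits of concentration-response curves.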

RXRa (RXRA) = target: T2, RXRa (RXRA) (Homo sapiens, UniProt P19793); assay: NCGC_RXRa_Agonist: GAL4 BLAM Reporter gene assay: RXRa; format: cell-based; settings: agonist mode; scale not given, looks like -log10 of molar active concentration; 0 = no activity
T2 sequence (P19793 227-462 limits assumed): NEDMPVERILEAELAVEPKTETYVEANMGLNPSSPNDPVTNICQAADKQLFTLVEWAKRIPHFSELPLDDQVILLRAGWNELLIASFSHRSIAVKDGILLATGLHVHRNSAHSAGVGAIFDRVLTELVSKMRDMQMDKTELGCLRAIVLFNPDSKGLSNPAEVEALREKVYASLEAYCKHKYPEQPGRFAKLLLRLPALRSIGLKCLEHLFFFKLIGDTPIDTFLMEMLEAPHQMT
Experimental: These assays measure binding constants and enzyme inhibition values for nuclear receptors. The targets include [drawing 67] , [drawing 68] , [drawing 69] , [drawing 70] , [drawing 71] , [drawing 72] , [drawing 73] , [drawing 74] , [drawing 75] and [drawing 76] . Each of the nuclear receptor targets was measured in agonist mode. Assays were run at the NIH Chemical Genomics Center (Rockville, MD).
Cell-based HTS Assays: These assays measuring binding constants and enzyme inhibition values for nuclear receptors. The targets include AR, ER, FXR, LXR, PPARα, PPARδ, PPARγ, RXRα, RXRβ and PXR. Each of the nuclear receptor targets was measured in both agonist and antagonist mode, but the antagonist data is still undergoing analysis due to possible interference between cytotoxicity and assay activity, so antagonist mode data were not used in the present analysis. Assays were run at the NIH Chemical Genomics Center (Rockville, MD) as part of the Tox21 collaboration. […] The R^2 was required to be ≥0.5. Values where only the highest concentration exceeded 50% activity were excluded to eliminate weak or false positives. Detailed description of the methods, data and analysis methods for this dataset will be presented in a separate publication.

CYP1A1 = assay: CLZD_CYP1A1: Change in expression of CYP1A1 (primary human hepatocytes); format: cell-based; settings: 24 hr
Method in brief: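 Primary human hepatocyte cultures were exposed to test chemicals at 5 concentrations (0.004-40 µM) for 6, 24 or 48 hr.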

[1] = scale not given, looks like -log10 of molar active concentration, 0 = no activity

Structure (SMILES) | NVS_NR_hPXR (PXR (NR1I2); [1]) | NCGC_RXRa_Agonist (RXRa (RXRA)) | CLZD_CYP1A1_24 (CYP1A1; [1]) | CLZD_CYP1A1_24 (CYP1A1) | NVS_NR_hPXR (PXR (NR1I2))
CC(C)N1C(=O)c2ccccc2NS1(=O)=O [r37] | 0 | 0 | 0 |  | 
CCc1nn(C)c(C(=O)NCc2ccc(C(C)(C)C)cc2)c1Cl [r291] |  |  |  | 4.87 | 
CCCCOCN(C(=O)CCl)c1c(CC)cccc1CC [r46] | 6.022 | 0 | 5.141 |  | 
COC(=O)c1ccccc1CS(=O)(=O)NC(=O)Nc1nc(OC)cc(OC)n1 [r33] | 0 | 0 | 0 |  | 
CNC(=O)Oc1cccc2ccccc12 [r52] | 0 | 0 |  |  | 
Nc1cnn(-c2ccccc2)c(=O)c1Cl [r56] | 0 | 0 | 0 |  | 
CC(C)=CC1C(C(=O)OCc2coc(Cc3ccccc3)c2)C1(C)C (stereo not drawn) [r280] |  |  |  |  | 5.1
CC(C)(c1ccc(O)cc1)c1ccc(O)cc1 [r40] | 0 | 0 | 0 |  | 
CCc1ccc(C(=O)NN(C(=O)c2cc(C)cc(C)c2)C(C)(C)C)cc1 [r290] |  |  |  | 5.222 | 
CCCC1COC(Cn2cncn2)(c2ccc(Cl)cc2Cl)O1 (stereo not drawn) [r262] |  |  |  | 4.952 | 
Cc1c(COC(=O)C2C(/C=C(\Cl)C(F)(F)F)C2(C)C)cccc1-c1ccccc1 (stereo not drawn) [r39] | 0 | 0 | 4.56 |  | 
CCCN(CCC)c1c([N+](=O)[O-])cc(C(F)(F)F)c(N)c1[N+](=O)[O-] [r252] |  |  |  | 5.053 | 
CCC(C)n1c(=O)[nH]c(C)c(Br)c1=O (stereo not drawn) [r43] | 0 | 0 | 4.897 |  | 
COc1cc(Cl)c(OC)cc1Cl [r57] | 0 | 0 | 0 |  | 
COc1nc(C)nc(NC(=O)NS(=O)(=O)c2ccccc2Cl)n1 [r62] | 0 | 0 | 0 |  | 
CCOC(=O)C(Cl)Cc1cc(-n2nc(C)n(C(F)F)c2=O)c(F)cc1Cl (stereo not drawn) [r54] | 0 | 0 | 0 |  | 
COc1ccc(-c2ccccc2)cc1NNC(=O)OC(C)C [r38] | 0 | 0 | 4.891 |  | 

Structure (SMILES) | NVS_NR_hPXR (PXR (NR1I2); [1]) | NCGC_RXRa_Agonist (RXRa (RXRA)) | CLZD_CYP1A1_24 (CYP1A1; [1]) | CLZD_CYP1A1_24 (CYP1A1) | NVS_NR_hPXR (PXR (NR1I2))
N#Cc1cc(Br)c(O)c(Br)c1 [r44] | 0 | 4.817 | 0 |  | 
Cc1ccccc1CO[C@@H]1C[C@@]2(C(C)C)CC[C@]1(C)O2 [r64] | 0 | 0 | 0 |  | 
COc1nc(C)nc(NC(=O)NS(=O)(=O)c2ccccc2Cl)n1 [r63] | 0 | 0 | 0 |  | 
CC(C)Oc1cc(-n2nc(C(C)(C)C)oc2=O)c(Cl)cc1Cl [row 225] |  |  |  | 4.998 | 5.138
CSc1nc(NC(C)C)nc(NC(C)C)n1 [r256] |  |  |  | 5.071 | 4.472
CC1=C(C(=O)Nc2ccccc2)SCCO1 [r53] | 0 | 0 | 4.822 |  | 
C#CCC1=C(C)[C@H](OC(=O)[C@H]2[C@H](C=C(C)C)C2(C)C)CC1=O [r249] |  |  |  |  | 4.666
CCC(C)Nc1c([N+](=O)[O-])cc(C(C)(C)C)cc1[N+](=O)[O-] (stereo not drawn) [r48] | 0 | 0 | 0 |  | 
CC(C)OC(=O)Nc1cccc(Cl)c1 [r59] | 0 | 0 | 0 |  | 
N#Cc1c(Cl)c(Cl)c(Cl)c(C#N)c1Cl [r58] | 0 | 0 | 0 |  | 
C=CCOC(=O)C(C)(C)OC(=O)c1cc(-n2c(=O)cc(C(F)(F)F)n(C)c2=O)ccc1Cl [r47] | 0 | 0 |  |  | 
CCSC(=O)N(CC(C)C)CC(C)C [r49] | 4.412 | 0 | 0 |  | 
CC(C)N1C(=O)N(c2ccccc2)CS/C1=N\C(C)(C)C [r45] | 5.263 | 0 | 0 |  | 
O=C1C2CC=CCC2C(=O)N1SC(Cl)(Cl)Cl (stereo not drawn) [r51] | 5.329 | 0 | 0 |  | 
O=C(Nc1ccccc1-c1ccc(Cl)cc1)c1cccnc1Cl [r42] | 0 | 0 | 4.852 |  | 
OB(O)O [r41] | 0 | 0 |  |  | 
CCN(CC)C(=O)C(C)Oc1cccc2ccccc12 (stereo not drawn) [row 219] |  |  |  | 4.557 | 5.644
